Data on 16 compounds can be found in patent US10166218B2, “3-(1H-indol-2-yl)-1H-pyrazolo[3,4-C]pyridines and therapeutic uses thereof” (Samumed, LLC, priority 2015, dated 2019).

Structures are written as SMILES. pEC50: −log10 of the molar value.

Common to all, as to type: cell-based
Assay [1] relates to Wnt activity (Sp5-Luc reporter, TCF/LEF binding sites) in SW480 colon carcinoma cells. The assay can be described thus: Screening assay for Wnt activity: Sp5-Luc reporter gene assay in stably transduced SW480 cells. To be noted: Homo sapiens; for pEC50: overnight incubation. Put shortly:
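SW480 cells stably transduced with an Sp5 promoter (eight TCF/LEF sites)–firefly luciferase lentiviral reporter, plated at 4,000 cells/well in 1% FBS medium with compounds (10-point 1:3 series from 10 μM, 0.1% DMSO) overnight at 37 °C. BrightGlo luminescence normalised to DMSO; EC50 by four-parameter fit, else % inhibition at 10 μM.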
(In general: A reporter such as luciferase makes a cellular process visible.)

The test system of a further assay is SW480 colon cancer cells. The assay is described as follows: Cell viability assay (CellTiter-Blue) in SW480 colon cancer cells. As to conditions: Homo sapiens, 96 h, four days; for pEC50: CellTiter-Blue; for inhibition at 10 µM: read-out: percent inhibition at 10 μM (given for EC50 of >10 μM). The method, boiled down: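 Approximately 2×10^3 SW480 cells per well are seeded with compound (8 points, threefold steps, top 10 μM) and incubated four days at 37 °C. CellTiter-Blue is then added for about 3 h and fluorescence read. Non-linear regression gives EC50; for values beyond 10 μM, percent inhibition at that concentration is listed.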

The subject of assay [2] is primary human mesenchymal stem cells (hMSCs). The assay is described as follows: Induction of chondrogenesis in primary human mesenchymal stem cells (chondrogenic nodules). To be noted: 144 h, 6 days; for EC50: concentration required to induce 50% levels of chondrogenesis of TGF-β3 positive control, read-out: Conc (nM) of 50% TGF-β3 activity; for Emax: nodules, relative to TGF-β3 (10 ng/mL) positive control, read-out: Max. Activity as % TGF-β3 activity. The protocol: Representative compounds were screened using primary human mesenchymal stem cells (hMSCs) to determine their ability to induce chondrogenesis (process by which cartilage is developed).
Primary human mesenchymal stem cells (hMSCs) were purchased from Lonza (Walkersville, Md.) and expanded in Mesenchymal Stem Cell Growth Media (Lonza). Cells between passage 3 and 6 were used for the experiments.
Each compound was dissolved in DMSO as a 10 mM stock and used to prepare compound source plates. Serial dilution (1:3, 6-point dose-response curves from 2700 nM to 10 nM) and compound transfer was performed using the ECHO 550 (Labcyte, Sunnyvale, Calif.) into 96-well clear bottom assay plates (Greiner Bio-One) with appropriate DMSO backfill for a final DMSO concentration of 0.03%. hMSCs were plated at 20,000 cells/well in 250 μL/well Incomplete Chondrogenic Induction Medium (Lonza; DMEM, dexamethasone, ascorbate, insulin-transferrin-selenium [ITS supplement], gentamycin-amphotericin [GA-1000], sodium pyruvate, proline and L-glutamine). TGF-β3 (10 ng/mL) was used as a positive control for differentiation while negative control wells were treated with 75 nL DMSO for normalization and calculating EC50 values. Cells were incubated at 37° C. and 5% CO2 for 6 days. To image chondrogenic nodules, the cells were fixed using 4% formaldehyde (Electron Microscopy Sciences), and stained with 2 μg/mL Rhodamine B (Sigma-Aldrich) and 20 μM Nile Red (Sigma-Aldrich) [Johnson K., et. al, A Stem Cell-Based Approach to Cartilage Repair, Science, (2012), 336(6082), 717-721]. The nodules imaged (4 images per well at 4× magnification) by excitation at 531 nm and emission at 625 nm and quantified using the CellInsight CX5 (Thermo Scientific). Number of nodules in each well was normalized to the average of 3 DMSO treated wells on the same plate using Excel (Microsoft Inc.). The normalized averages (fold change over DMSO) of 3 replicate wells for each compound concentration were calculated. Due to solubility limitations of some of the compounds, curve fitting was incomplete leading to inaccurate EC50 determinations.
Using TGF-β3 as a positive control, the concentration of representative compounds required to induce 50% levels of chondrogenesis is reported. In addition, the maximum activity of each compound and the respective dose that each compound reached maximum chondrogenesis activity is reported.

In the case of `CCCCC(=O)Nc1cncc(-c2cc3c(-c4cc5c(-c6ccccn6)cccc5[nH]4)n[nH]c3cn2)c1` [Compound 159, N-(5-(3-(4-(Pyridin-2-yl)-1H-indol-2-yl)-1H-pyrazolo[3,4-c]pyridin-5-yl)pyridin-3-yl)pentanamide], the pEC50 (commonly the negative decadic logarithm of the EC50, by convention in mol/L) in assay [1] is 5.46. Moreover, the pEC50 in the assay on SW480 colon cancer cells was 5.55. In assay [2], the EC50 was 900 nM and the Emax was 84%.
Take `CC(C)C(=O)Nc1cncc(-c2cc3c(-c4cc5c(N6CCN(C)CC6)cccc5[nH]4)n[nH]c3cn2)c1` [Compound 233]: the pEC50 in assay [1] was 6.15; in the assay on SW480 colon cancer cells it was 5.71. For the same compound, the Emax in assay [2] stood at 36%.
In the same order, the values of `O=C(Nc1cncc(-c2cc3c(-c4cc5ccccc5[nH]4)n[nH]c3cn2)c1)c1ccccc1` [Compound 263, N-(5-(3-(1H-Indol-2-yl)-1H-pyrazolo[3,4-c]pyridin-5-yl)pyridin-3-yl) benzamide] are 6.70, 5.31 and 122%.
In the same order, the values of `c1ccc2[nH]c(-c3n[nH]c4cnc(-c5cncc(CN6CCCC6)c5)cc34)cc2c1` [Compound 266, 3-(1H-Indol-2-yl)-5-(5-(pyrrolidin-1-ylmethyl)pyridin-3-yl)-1H-pyrazolo [3,4-c]pyridine] are 6.41, 5.79 and 138%.
For `c1cc(-c2ccoc2)c2cc(-c3n[nH]c4cnc(-c5cncc(CN6CCCCC6)c5)cc34)[nH]c2c1` [Compound 323, 3-(4-(Furan-3-yl)-1H-indol-2-yl)-5-(5-(piperidin-1-ylmethyl)pyridin-3-yl)-1H-pyrazolo[3,4-c]pyridine], in that order: 5.56, 5.63 and 85%.
With `CN(C)CCNc1cc(F)cc(-c2cccc3[nH]c(-c4n[nH]c5cnc(-c6cncc(N)c6)cc45)cc23)c1` [Compound 451, N^1-(3-(2-(5-(5-Aminopyridin-3-yl)-1H-pyrazolo[3,4-c]pyridin-3-yl)-1H-indol-4-yl)-5-fluorophenyl)-N^2,N^2-dimethylethane-1,2-diamine], the pEC50 in assay [1] was 6.35; in the assay with SW480 colon cancer cells, 6.18. Moreover, the EC50 in assay [2] is 100 nM. Further, the Emax in assay [2] came to 180%.
For `CCNCc1cncc(-c2cc3c(-c4cc5c(-c6cc(F)cc(NCCN(C)C)c6)cccc5[nH]4)n[nH]c3cn2)c1` [Compound 454, N^1-(3-(2-(5-(5-((Ethylamino)methyl)pyridin-3-yl)-1H-pyrazolo[3,4-c]pyridin-3-yl)-1H-indol-4-yl)-5-fluorophenyl)-N^2,N^2-dimethylethane-1,2-diamine], in that order: 5.90, 5.83, 30 nM and 294%.
In the same order, the values of `CN(C)CCNc1cc(F)cc(-c2cccc3[nH]c(-c4n[nH]c5cnc(-c6cncc(NC(=O)C(C)(C)C)c6)cc45)cc23)c1` [Compound 456, N-(5-(3-(4-(3-((2-(Dimethylamino)ethyl)amino)-5-fluorophenyl)-1H-indol-2-yl)-1H-pyrazolo[3,4-c]pyridin-5-yl)pyridin-3-yl)pivalamide] are 6.41, 6.36, 10 nM and 87%.
`CN(C)CCNc1cc(F)cc(-c2cccc3[nH]c(-c4n[nH]c5cnc(-c6cncc(CN(C)C)c6)cc45)cc23)c1` [Compound 461, N^1-(3-(2-(5-(5-((Dimethylamino)methyl)pyridin-3-yl)-1H-pyrazolo[3,4-c]pyridin-3-yl)-1H-indol-4-yl)-5-fluorophenyl)-N^2,N^2-dimethylethane-1,2-diamine]: the pEC50 in assay [1] was 5.88; with SW480 colon cancer cells, 6.02. Besides, in assay [2], the Emax is 52%.
As to `CN(C)CCNc1cc(F)cc(-c2cccc3[nH]c(-c4n[nH]c5cnc(-c6ccccn6)cc45)cc23)c1` [Compound 476, N^1-(3-Fluoro-5-(2-(5-(pyridin-2-yl)-1H-pyrazolo[3,4-c]pyridin-3-yl)-1H-indol-4-yl)phenyl)-N^2,N^2-dimethylethane-1,2-diamine], in assay [1], the pEC50 is 5.43. In the assay on SW480 colon cancer cells, this compound gave a pEC50 of 5.54. For the same compound, in assay [2], the EC50 was found to be 10 nM and the Emax is 89%.
In the same order, the values of `Cc1ccncc1-c1cc2c(-c3cc4c(-c5cc(F)cc(CNS(C)(=O)=O)c5)cccc4[nH]3)n[nH]c2cn1` [Compound 481, N-(3-Fluoro-5-(2-(5-(4-methylpyridin-3-yl)-1H-pyrazolo[3,4-c]pyridin-3-yl)-1H-indol-4-yl)benzyl)methanesulfonamide] are 6.71, 5.71, 900 nM and 152%.
In assay [1], `CS(=O)(=O)NCc1cc(F)cc(-c2cccc3[nH]c(-c4n[nH]c5cnc(-c6cncnc6)cc45)cc23)c1` [Compound 503, N-(3-Fluoro-5-(2-(5-(pyrimidin-5-yl)-1H-pyrazolo[3,4-c]pyridin-3-yl)-1H-indol-4-yl)benzyl)methanesulfonamide] showed a pEC50 of 6.25. This compound gave a pEC50 with SW480 colon cancer cells of 5.40. In assay [2], the EC50 came out at 900 nM and the Emax worked out at 102%.
Consider `CN(C)CCOc1cncc(-c2cc3c(-c4cc5c(-c6cccnc6)cccc5[nH]4)n[nH]c3cn2)c1` [Compound 591, N,N-Dimethyl-2-((5-(3-(4-(pyridin-3-yl)-1H-indol-2-yl)-1H-pyrazolo[3,4-c]pyridin-5-yl)pyridin-3-yl)oxy)ethan-1-amine], for which the pEC50 (in assay [1]; in the assay on SW480 colon cancer cells) was 5.56 each time. For the same compound, in assay [2], the Emax was found to be 36%.
In turn, `Cn1cc(-c2cc3c(-c4cc5c(-c6ccncc6)cccc5[nH]4)n[nH]c3cn2)cn1` [Compound 600, 5-(1-Methyl-1H-pyrazol-4-yl)-3-(4-(pyridin-4-yl)-1H-indol-2-yl)-1H-pyrazolo[3,4-c]pyridine] showed a pEC50 in assay [1] of 7.57. Also, in the assay with SW480 colon cancer cells, the inhibition (in general, how much of the control response was suppressed) at 10 µM is 45.1% and the pEC50 is below 5.00. Besides, in assay [2], the EC50 came out at 300 nM and the Emax came out at 138%.
In the case of `O=C(CC1CCNCC1)Nc1cncc(-c2cc3c(-c4cc5c(-c6ccccn6)cccc5[nH]4)n[nH]c3cn2)c1` [Compound 621, 2-(Piperidin-4-yl)-N-(5-(3-(4-(pyridin-2-yl)-1H-indol-2-yl)-1H-pyrazolo[3,4-c]pyridin-5-yl)pyridin-3-yl)acetamide], the inhibition at 10 µM came out at 46.2% in assay [1] (10 μM, read-out: percent inhibition at 10 μM (given for EC50 of >10 μM)) and 29.3% in the assay with SW480 colon cancer cells. The pEC50 (in assay [1]; with SW480 colon cancer cells) was below 5.00 throughout. The Emax in assay [2] came out at 57%.
On to `CN(C)CCNc1cc(F)cc(-c2cccc3[nH]c(-c4n[nH]c5cnc(-c6cncc(O)c6)cc45)cc23)c1` [Compound 817, 5-(3-(4-(3-((2-(Dimethylamino)ethyl)amino)-5-fluorophenyl)-1H-indol-2-yl)-1H-pyrazolo[3,4-c]pyridin-5-yl)pyridin-3-ol], for which the pEC50 in assay [1] was 6.39; in the assay on SW480 colon cancer cells it was 5.97. In addition, the EC50 in assay [2] was 10 nM. Besides, in assay [2], the Emax came out at 66%.
